Measured values reported in patent US20240309060A1, “POLYPEPTIDE BAX/NPM INHIBITORS” (TRUSTEES OF BOSTON UNIVERSITY, priority 2023, published 2024).
“Also recorded” adds a separate entry of the source.

System: primary murine proximal tubule epithelial cells (PTEC)
Assay: MTT cell survival assay of kidney cells after ischemic stress in vitro induced by metabolic inhibitors
Format: cell-based
Details: for Effect of the residue (single alanine substitution) on cytoprotection / cell survival after ischemic stress: alanine scanning of NPMB1, PTEC, FIG. 2; for Degree of cytoprotection during ischemic stress: alanine scan and pro-helical mutations; for Protection of primary kidney proximal tubule cells from ischemic stress (relative kidney cell survival rate): 70 min ischemic stress, metabolic inhibitors, vs non-specific GFP fragment, normalized to baseline, FIG. 4; for Viability of primary murine kidney cells after ischemic stress: ischemic stress induced by metabolic inhibitors, FIGS. 5, 7
Experimental: FIG. 2 depicts an NPMB1 Alanine Scan. Relative kidney cell survival rate after 70 min ischemic stress in vitro induced by metabolic inhibitors in the presence of NPMB1 (control) vs. 19 different NPMBx polypeptides with single alanine substitutions (2 additional NPMB1 alanine residues were not substituted). Residue numbers (x axis) reflect Bax sequence that binds human NPM1; Survival data are normalized to NPMB1; post-ischemic kidney cell survival is shown in tertiles: (left-most group: 5-40% survival; middle-group: 55-70% and third group: 80-95%); n=3 separate experiments.
Relative kidney cell survival rate after 70 min ischemic stress in vitro induced by transient exposure to metabolic inhibitors in the presence of NPMB polypeptides (Agents 2, 5, 7, 14 that reflect alanine scan polypeptides A173, A187, A179, A176) vs. a non—specific polypeptide (GFP fragment). Survival data normalized to baseline (no stress); *P<0.01vs. baseline; t P<0.05 vs. stress; data represent 3 separate experiments; error bars represent mean+SD.
FIGS. 13A-13B depict the cytoprotective effects of select therapeutic peptides during ischemic stress in vitro. Primary murine proximal tubule epithelial cells (PTEC) were transiently exposed to metabolic inhibitors for 60 min and allowed to recover for 6 hr. to simulate ischemia in vivo; MTT assay estimated cell survival. “Control” (open bars); is a GFP fragment of similar size to the therapeutic peptides was used a negative control; NPMB1 (prototype) serves as a positive control. […] All peptides contained the nuclear localizing sequence (NLS) to enhance peptide delivery to the kidney, a beta linker and both carboxy-and amino terminal modifications to reduce susceptibility to protease digestion; data are mean+standard error; n=3 separate experiments. Figure discloses SEQ ID NOS 139, 134-135, 128, 127, and 138, respectively, in order of appearance.
Structure activity relationships of NPMB1 derivatives were determined through alanine scanning In these studies, 19 polypeptides were produced using methods shown in FIGS. 8-11 and their effect of kidney cell survival after ischemic stress was characterized using the MTT cell survival assay. Based on determination of relative kidney cell survival rate, polypeptides were grouped according to activity as shown in FIG. 2 (orange: 5-40% survival; blue 55-70% survival, or green 80-95% survival).

Row | Substance | Effect of the residue (single alanine substitution) on cytoprotection / cell survival after ischemic stress | other results
1 | Ac-PKKKRKV-Bala-AVTIFVAGVLTASLTIWKKMG-OMe [NPMB1-III-001] | moderate cytoprotective effects | 
2 | Ac-PKKKRKV-Bala-QVTIAVAGVLTASLTIWKKMG-OMe [NPMB1-X-009] |  | Cytoprotective effects during ischemic stress in vitro (peptides 100 nM, metabolic inhibitors 60 min, recovery 6 hr, vs GFP negative control, FIG. 13): most robust protection
3 | Ac-PKKKRKV-Bala-QVTIFVAGVLTASLTIWKKMG-OMe [NPMB1-V-004] |  | Degree of cytoprotection during ischemic stress: highly effective
4 | Ac-PKKKRKV-Bala-TATIFVAGVLTASLTIWKKMG-OMe [NPMB1-III-002] | minimal effect on cell survival | Protection of primary kidney proximal tubule cells from ischemic stress (relative kidney cell survival rate): protect; Degree of cytoprotection during ischemic stress: substantial protection; Viability of primary murine kidney cells after ischemic stress (listed as Agent 2): substantially improve the viability; also recorded: protect against ischemic injury
5 | Ac-PKKKRKV-Bala-TVAIFVAGVLTASLTIWKKMG-OMe [NPMB1-III-003] | critical for cytoprotection | 
6 | Ac-PKKKRKV-Bala-TVTAFVAGVLTASLTIWKKMG-OMe [NPMB1-III-004] | moderate cytoprotective effects | 
7 | Ac-PKKKRKV-Bala-TVTIAVAGVLTASLTIWKKMG-OMe [NPMB1-III-005] | minimal effect on cell survival | Protection of primary kidney proximal tubule cells from ischemic stress (relative kidney cell survival rate): protect; Degree of cytoprotection during ischemic stress: substantial protection; Viability of primary murine kidney cells after ischemic stress (listed as Agent 5): substantially improve the viability; also recorded: protect against ischemic injury
8 | Ac-PKKKRKV-Bala-TVTIFAAGVLTASLTIWKKMG-OMe [NPMB1-III-006] | critical for cytoprotection | 
9 | Ac-PKKKRKV-Bala-TVTIFVAAVLTASLTIWKKMG-OMe [NPMB1-III-007] | minimal effect on cell survival | Protection of primary kidney proximal tubule cells from ischemic stress (relative kidney cell survival rate): protect; Degree of cytoprotection during ischemic stress: substantial protection; Viability of primary murine kidney cells after ischemic stress (listed as Agent 7): substantially improve the viability; also recorded: protect against ischemic injury
10 | Ac-PKKKRKV-Bala-TVTIFVAGALTASLTIWKKMG-OMe [NPMB1-III-008] | moderate cytoprotective effects | 
11 | Ac-PKKKRKV-Bala-TVTIFVAGVATASLTIWKKMG-OMe [NPMB1-III-009] | critical for cytoprotection | 
12 | Ac-PKKKRKV-Bala-TVTIFVAGVLAASLTIWKKMG-OMe [NPMB1-III-010] | critical for cytoprotection | 
13 | Ac-PKKKRKV-Bala-TVTIFVAGVLTAALTIWKKMG-OMe [NPMB1-III-011] | critical for cytoprotection | 
14 | Ac-PKKKRKV-Bala-TVTIFVAGVLTASATIWKKMG-OMe [NPMB1-III-012] | moderate cytoprotective effects | Viability of primary murine kidney cells after ischemic stress (listed as Agent 12): substantially improve the viability; also recorded: protect against ischemic injury
15 | Ac-PKKKRKV-Bala-TVTIFVAGVLTASLAIWKKMG-OMe [NPMB1-III-013] | moderate cytoprotective effects | 
16 | Ac-PKKKRKV-Bala-TVTIFVAGVLTASLTAWKKMG-OMe [NPMB1-III-014] | minimal effect on cell survival | Protection of primary kidney proximal tubule cells from ischemic stress (relative kidney cell survival rate): protect; Degree of cytoprotection during ischemic stress: substantial protection
17 | Ac-PKKKRKV-Bala-TVTIFVAGVLTASLTIAKKMG-OMe [NPMB1-III-015] | critical for cytoprotection | 
18 | Ac-PKKKRKV-Bala-TVTIFVAGVLTASLTIWAKMG-OMe [NPMB1-III-016] | critical for cytoprotection | 
